Target: T1, Lon protease homolog, mitochondrial (Homo sapiens, UniProt P36776)
T1 sequence (P36776 whole entry): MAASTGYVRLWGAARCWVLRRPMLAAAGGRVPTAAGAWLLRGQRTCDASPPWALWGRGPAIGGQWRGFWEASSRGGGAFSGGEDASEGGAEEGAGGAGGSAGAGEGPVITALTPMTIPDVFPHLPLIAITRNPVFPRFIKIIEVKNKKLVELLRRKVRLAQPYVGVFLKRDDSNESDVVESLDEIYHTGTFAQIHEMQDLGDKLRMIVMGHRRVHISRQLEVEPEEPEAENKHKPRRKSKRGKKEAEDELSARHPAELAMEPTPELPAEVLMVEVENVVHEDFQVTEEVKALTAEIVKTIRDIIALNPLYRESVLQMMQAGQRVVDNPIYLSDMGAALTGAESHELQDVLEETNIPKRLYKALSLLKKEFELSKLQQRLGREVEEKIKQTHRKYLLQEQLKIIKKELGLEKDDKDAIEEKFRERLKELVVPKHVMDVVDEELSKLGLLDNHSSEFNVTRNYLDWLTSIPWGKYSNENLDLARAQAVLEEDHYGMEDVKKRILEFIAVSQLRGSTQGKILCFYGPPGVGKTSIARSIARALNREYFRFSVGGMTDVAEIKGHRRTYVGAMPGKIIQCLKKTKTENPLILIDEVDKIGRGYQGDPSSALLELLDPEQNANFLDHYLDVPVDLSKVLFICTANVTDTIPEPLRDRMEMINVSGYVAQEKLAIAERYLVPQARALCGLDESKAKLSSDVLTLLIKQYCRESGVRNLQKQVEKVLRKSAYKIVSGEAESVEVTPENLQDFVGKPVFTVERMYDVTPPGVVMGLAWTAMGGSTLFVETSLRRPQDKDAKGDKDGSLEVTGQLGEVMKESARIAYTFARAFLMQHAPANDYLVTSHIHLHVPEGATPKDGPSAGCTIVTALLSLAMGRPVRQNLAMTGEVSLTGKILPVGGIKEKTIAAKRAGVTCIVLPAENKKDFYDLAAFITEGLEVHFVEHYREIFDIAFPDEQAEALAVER
Assay: Biological/Biochemical Evaluation
Experimental: In this Example, LONP1 (NM_004793.4) activity was measured by a FRET-based assay for protease activity using a fluorogenic peptide DabcylYRGIT(2Abu)SORQK(5-FAM) (Cambridge Research Biochemicals) as substrate. LONP1 activity is followed by an increase in fluorescence signal due to the degradation of the peptide. Inhibition of LONP1 protease activity by an inhibitor compound of the disclosure elicits a decrease in the fluorescent signal. The assay is performed in a 384-well plate (Greiner, cat. #781076) using the following reagents and conditions: substrate (3 μM) was incubated for 1 hour at 37° C. in the presence of LONP1 (15 nM as monomer), 25 mM Tris pH 8.0, 10 mM MgCl2, 0.03 mg/mL […], 0.5 mM DTT, 0.0003% Tween-20, 10 mM NaCl, 0.06 mM ATP and 0.5 mM EGTA in a 15 μL final volume. The LONP1-containing mix (10 μL) was incubated with the test compound for 15 min at 37° C. before adding the peptide-containing mix (5 μL). Solutions were dispensed using a small cassette-Multidrop Combi (Thermo Scientific). Fluorescence was measured using a PheraStar plate reader (BMG Labtech) FI-FRET EX 485 nm Em 520 nm.

Row | Structure (SMILES) | IC50 [µM]
1 | COC[C@@H](NC(=O)c1cnccn1)C(=O)N[C@@H](CCCc1ccc(OC)cc1)B(O)O [US20250320234, Compound 5] | < 0.05
2 | O=C(N[C@H](COCc1ccccc1)C(=O)N[C@@H](CCCc1ccccc1)B(O)O)c1cnccn1 [US20250320234, Compound 11] | < 0.05
3 | COC[C@@H](NC(=O)c1cnccn1)C(=O)N[C@@H](CCCc1ccc(Cl)cc1)B(O)O [US20250320234, Compound 12] | < 0.05
4 | COC[C@@H](NC(=O)c1cnccn1)C(=O)N[C@H](CCOc1ccc(Cl)cc1C)B(O)O [US20250320234, Compound 28] | > 5
5 | COC[C@@H](NC(=O)c1cnccn1)C(=O)N[C@@H](CCOc1ccc(Cl)cc1)B(O)O [US20250320234, Compound 21] | < 0.05
6 | COC[C@@H](NC(=O)c1cnccn1)C(=O)N[C@@H](CCOc1ccccc1)B(O)O [US20250320234, Compound 14] | < 0.05
7 | COC[C@@H](NC(=O)c1cncnc1)C(=O)N[C@@H](CCCc1ccccc1)B(O)O [US20250320234, Compound 52] | < 0.05
8 | COC[C@@H](NC(=O)c1ccc(Cl)cc1)C(=O)N[C@@H](CCCc1ccccc1)B(O)O [US20250320234, Compound 51] | < 0.05
9 | COC[C@@H](NC(=O)c1cccc(Cl)c1)C(=O)N[C@@H](CCCc1ccccc1)B(O)O [US20250320234, Compound 54] | < 0.05
10 | O=C(N[C@H](COC1CC1)C(=O)N[C@@H](CCCc1ccccc1)B(O)O)c1cnccn1 [US20250320234, Compound 20] | < 0.05
11 | COC[C@@H](NC(=O)c1ccccc1Cl)C(=O)N[C@@H](CCCc1ccccc1)B(O)O [US20250320234, Compound 57] | < 0.05
12 | O=C(N[C@H](CSc1ccccc1)C(=O)N[C@@H](CCCc1ccccc1)B(O)O)c1cnccn1 [US20250320234, Compound 34] | < 0.05
13 | CO[C@@H](C)[C@@H](NC(=O)c1cnccn1)C(=O)N[C@@H](CCCc1ccccc1)B(O)O [US20250320234, Compound 6] | < 0.05
14 | COC[C@@H](NC(=O)c1cnccn1)C(=O)N[C@@](C)(CCCc1ccccc1)B(O)O [US20250320234, Compound 22] | > 5
15 | COC[C@@H](NC(=O)c1cnccn1)C(=O)N[C@@H](CCCc1ccc(F)cc1)B(O)O [US20250320234, Compound 32] | < 0.05
16 | COC[C@@H](NC(=O)c1cncc(C)c1)C(=O)N[C@@H](CCOc1ccccc1)B(O)O [US20250320234, Compound 44] | < 0.05
17 | COC[C@@H](NC(=O)c1ccccn1)C(=O)N[C@@H](CCOc1ccccc1)B(O)O [US20250320234, Compound 43] | < 0.05
18 | COC[C@@H](NC(=O)c1cccc(C)n1)C(=O)N[C@@H](CCOc1ccccc1)B(O)O [US20250320234, Compound 42] | < 0.05
19 | COC[C@@H](NC(=O)c1ccccn1)C(=O)N[C@@H](CCCc1ccccc1)B(O)O [US20250320234, Compound 9] | < 0.05
20 | COC[C@@H](NC(=O)c1cnccn1)C(=O)N[C@@H](CCOc1ccc(Cl)c(F)c1)B(O)O [US20250320234, Compound 25] | < 0.05
21 | COC[C@@H](NC(=O)N1CCOCC1)C(=O)N[C@@H](CCCc1ccccc1)B(O)O [US20250320234, Compound 31] | < 0.05
22 | COC[C@@H](NC(=O)c1cccc(C)n1)C(=O)N[C@@H](CCCc1ccccc1)B(O)O [US20250320234, Compound 10] | < 0.05
23 | CN(C)S(=O)(=O)C[C@H](NC(=O)c1cnccn1)C(=O)N[C@@H](CCCc1ccccc1)B(O)O [US20250320234, Compound 36] | < 0.05
24 | COC[C@@H](NC(=O)c1cnccn1)C(=O)N[C@@H](CCOc1ccc(F)cc1)B(O)O [US20250320234, Compound 23] | < 0.05
25 | COC[C@@H](NC(=O)[C@@H]1CCC(=O)N1)C(=O)N[C@@H](CCCc1ccccc1)B(O)O [US20250320234, Compound 7] | < 0.05
26 | COC[C@@H](NC(=O)c1cnccn1)C(=O)N[C@@H](CCOc1ccc(Cl)cc1F)B(O)O [US20250320234, Compound 24] | < 0.05
27 | COC[C@@H](NC(=O)c1cc(Cl)ccc1Cl)C(=O)N[C@@H](CCCc1ccccc1)B(O)O [US20250320234, Compound 56] | < 0.05

Reference: BindingDB's records for patent US20250320234 (Pretzel Therapeutics, 2025)
